The OPERA property sets (Mansouri et al. 2018)
Peptide text beside a SMILES is read from it.

Row | SMILES | logP
1 | CC(=O)[C@@]1(O)CC[C@H]2[C@@H]3CCC4=CC(=O)CC[C@]4(C)[C@H]3CC[C@@]21C | 3.17
2 | CCCC(O)CCC | 2.22
3 | O=S1(=O)C=Cc2ccccc21 | 0.88
4 | O=[N+]([O-])c1cn[nH]c1 | 0.59
5 | O=C(O)c1cccc(I)c1 | 3.13
6 | CN(C)CCC(c1ccc(Cl)cc1)c1ccccn1 (stereo unspecified) | 3.38
7 | COc1ccc([N+](=O)[O-])cc1N | 1.47
8 | FC(F)(F)c1cccc(C(F)(F)F)c1 | 3.83
9 | O=C1OC2(CCCC2)c2ccccc21 | 2.56
10 | OCCc1ccccn1 | 0.12
11 | N#CCCCc1ccccc1 | 2.21
12 | O=C(O)C=Cc1ccc([N+](=O)[O-])cc1 | 2.12
13 | O=C1c2ccccc2C(=O)N1SC(Cl)(Cl)Cl | 2.85
14 | COc1ccc(NC(=O)N(C)C)cc1Cl | 1.64
15 | COc1cc(NC(=O)NC(=N)N)ccc1C#N | 1.28
16 | CCCCCOC1OC(CO)C(O)C(O)C1O (stereo unspecified) | -0.42
17 | N#Cc1ccc2[nH]ccc2c1 | 2.38
18 | CN1CCN(Cc2ccc(C(=O)OCn3ncc4c(=O)[nH]cnc43)cc2)CC1 | 1.47
19 | NS(=O)(=O)c1ccc([N+](=O)[O-])cc1 | 0.64
20 | CCCS | 1.81
21 | CNC(=O)Oc1ccc(C(=O)OC)cc1 | 1.5

Row | SMILES | logP
22 | O=C(O)COc1ccc(F)cc1 | 1.64
23 | CC[C@H](C)[C@H](NC(C)=O)C(=O)N[C@H](C(N)=O)C(C)C (Ac-Ile-Val-NH2) | 0.16
24 | COc1ccc(C(C[N+](=O)[O-])c2ccc(OC)cc2)cc1 | 3.57
25 | O=C1c2ccccc2Cc2ccccc21 | 3.66
26 | O=C(CN1CCCCC1)Nc1cccc(Br)c1 | 3.62
27 | NC1=CC(=O)c2ccccc2C1=O | 1.77
28 | Nc1ccc2cc3ccccc3nc2c1 | 2.77
29 | CCOc1ccc(N)cc1 | 1.24
30 | Cc1ccccc1OC(=O)c1ccc(N)cc1O | 3.14
31 | O=S(c1ccccc1)c1ccccc1 | 2.06
32 | CNC(=O)Oc1ccc2c(c1)[C@]1(C)CCN(C)[C@@H]1N2C | 1.58
33 | ClC(Cl)(Cl)c1ccc(C(Cl)(Cl)Cl)cc1 | 4.62
34 | NC(=O)C(Cl)Cl | 0.19
35 | c1ccc2c(c1)-c1cccc3cccc-2c13 | 5.16
36 | O=C(CCl)NC(CO)C(O)c1ccc([N+](=O)[O-])cc1 (stereo unspecified) | 0.59
37 | NC(=O)CCOc1ccccc1 | 0.8
38 | N#CCCOc1ccccc1 | 1.61
39 | O=C(O)CCCl | 0.41
40 | CCCCCn1cnc2c(N)ncnc21 | 1.79
41 | CCNC(=O)c1ccoc1 | 0.72
42 | COc1cccc(OC)c1C(=O)O | 0.66

Row | SMILES | logP
43 | CCC(=O)OC1(C(=O)CBr)C(C)CC2C3CCC4=CC(=O)C=CC4(C)C3(F)C(=O)CC21C (stereo unspecified) | 3.55
44 | Oc1c(Br)cc(Br)cc1Br | 4.13
45 | COc1cc2c(c(OC)c1O)-c1ccc(OC)c(=O)cc1[C@@H](NC(C)=O)CC2 | 0.48
46 | CN(C(N)=S)c1ccccc1 | 0.85
47 | Nc1ccccc1Cl | 1.9
48 | CC(=O)CCC(C)=O | -0.27
49 | CCCOC | 1.21
50 | O=C(OCCCc1cnc[nH]1)c1ccccc1 | 2.64
51 | Cc1n[nH]c(C(=O)NCCc2ccccc2)c1[N+](=O)[O-] | 1.82
52 | c1ccc(Nc2ccc3ccccc3c2)cc1 | 4.38
53 | CCN(CC)CCNC(=O)c1cc(Cl)ccc1OC | 3.11
54 | CC1=C(N2CC2)C(=O)C(CCOC(N)=O)=C(N2CC2)C1=O | 0.16
55 | NNC(=O)c1ccccc1O | 0.6
56 | COC(F)(F)C(Cl)Cl | 2.21
57 | CC1CC2OC(=O)C(C)C2C(OC(=O)CC(=O)OC2C3C(CC(C)C4CCC(=O)C42C)OC(=O)C3C)C2(C)C(=O)CCC12 (stereo unspecified) | 0.76
58 | CCC(N)Cc1ccccc1 (stereo unspecified) | 2.28
59 | Nc1ccc(C(=O)O)c(Cl)c1 | 1.33
60 | O=Cc1ccc2ccccc2n1 | 2.14
61 | Nc1cccc(Cl)c1 | 1.88
62 | O=c1cncc[nH]1 | -1.49
63 | NC(=O)c1ccc(C(F)(F)F)cc1 | 1.71

Row | SMILES | logP
64 | CCCCNC(=O)c1cccnc1 | 0.9
65 | COC(=O)c1ccc(NC(C)=O)cc1 | 1.79
66 | CCN(CC)Cc1cccnc1 | 1.01
67 | Clc1ccc(-c2ccc(Cl)c(Cl)c2Cl)cc1 | 5.84
68 | O=[N+]([O-])c1ccc(Cl)c(Cl)c1Cl | 3.61
69 | Oc1ccc(Cn2cc[nH]c2=S)cc1 | 1.02
70 | O=C(c1ccccc1)c1cccc(NS(=O)(=O)C(F)F)c1 | 2.86
71 | CC(=O)Nc1ccc(O)cc1C | 0.17
72 | O=C1C=CC(=O)N1c1ccccc1 | 1.09
73 | COc1cnc(NS(=O)(=O)c2ccc(N)cc2)nc1 | 0.41
74 | OCCc1cccnc1 | 0.12
75 | CS(=O)(=O)c1ccc2ncccc2c1 | 0.7
76 | OCCN1CCN(CCCN2c3ccccc3Sc3ccc(C(F)(F)F)cc32)CC1 | 4.36
77 | COc1ccc(OC)c(N)c1 | 1.2
78 | CCOC(=O)c1ccccn1 | 0.87
79 | O=[N+]([O-])c1ccc2c(c1)c([N+](=O)[O-])cc[n+]2[O-] | 0.9
80 | O=[N+]([O-])C=Cc1cccc([N+](=O)[O-])c1 | 1.82
81 | CC(C)c1ccc(O)cc1 | 2.9
